Results from patent US20190100534A1, “Cephem Compounds with Latent Reactive Groups” (Gladius Pharmaceuticals, Inc., priority 2017, published 2019).

Legend:
Experiment in all cases: MIC determination
KP (URMC-1) = type: cell-based, Klebsiella pneumoniae; conditions: CAMH broth, 20 μM Apo-Transferrin, 37° C., 18 hours
Description: (§1) Sterile technique was used throughout these experiments. Suspensions of organisms were removed from storage (−80° C.) and partially thawed. Partially thawed organisms (1 μL) were inoculated into 3 mL sterile LB Broth in a sterile culture tube and capped, then cultured at 37° C. with shaking for 4-5 hours until the optical density at 600 nm (OD600) was greater than 0.1 on a single beam spectrophotometer.
(§2) The concentration of organisms was adjusted to 0.08-0.1 OD600 (0.5 McFarland units) by dilution with sterile cation-adjusted Meuller-Hinton (CAMH) broth. The suspensions were used within 30 minutes of preparation.
(§3) A stock solution was made of each test compound by measuring 6.4 mg of the compound on an analytical balance and dissolving it in DMSO (1 mL) to get a transparent solution. The solutions were stored at −20° C. and thawed prior to use.
(§4) Sterile CAMH broth (200 μL) containing 20 μM Apo-Transferrin was pipetted into the first row of 8 columns of a sterile, round-bottomed, transparent, 96-well microplate using an 8-channel pipette equipped with sterile tips. One hundred μL was pipetted into the wells of the remaining 11 rows.
(§5) With an 8-channel pipette equipped with sterile tips, 100 μL of the first row solution was transferred to the second row and mixed. The process was repeated for the second to third rows and continued through row 11. One hundred μL from row 11 was removed and discarded so that all 12 rows contained 100 μL. Row 12 contained no compound and rows 1-11 contained 64, 32, 16, 8, 4, 2, 1, 0.5, 0.25, 0.125, […] of a given compound.
(§6) Inoculant suspensions (0.5 μL) were added to the 12 wells of each column. The plates were then covered and incubated at 37° C. overnight for 18 hours.
(§7) For each organism the MIC was determined by identifying the transparent well with the lowest test compound concentration.

KP (URMC-3) = type: cell-based, Klebsiella pneumoniae; conditions: CAMH broth, 20 μM Apo-Transferrin, 37° C., 18 hours
Description: as §1, §2, §3, §4, §5, §6, §7

KP (RR -1) = type: cell-based, Klebsiella pneumoniae; conditions: CAMH broth, 20 μM Apo-Transferrin, 37° C., 18 hours
Description: as §1, §2, §3, §4, §5, §6, §7

KP (GJ 5659 TEM-26) = type: cell-based, Klebsiella pneumoniae; conditions: CAMH broth, 20 μM Apo-Transferrin, 37° C., 18 hours
Description: as §1, §2, §3, §4, §5, §6, §7

KP (URMC-2) = type: cell-based, Klebsiella pneumoniae; conditions: CAMH broth, 20 μM Apo-Transferrin, 37° C., 18 hours
Description: as §1, §2, §3, §4, §5, §6, §7

KP (ATCC KPC-3) = type: cell-based, Klebsiella pneumoniae; conditions: CAMH broth, 20 μM Apo-Transferrin, 37° C., 18 hours
Description: as §1, §2, §3, §4, §5, §6, §7

CF (RR -1) = type: cell-based, Citrobacter freundii; conditions: CAMH broth, 20 μM Apo-Transferrin, 37° C., 18 hours
Description: as §1, §2, §3, §4, §5, §6, §7

PM (RR -1) = type: cell-based, Proteus mirabilis; conditions: CAMH broth, 20 μM Apo-Transferrin, 37° C., 18 hours
Description: as §1, §2, §3, §4, §5, §6, §7

EA (URMC -3) = type: cell-based; conditions: CAMH broth, 20 μM Apo-Transferrin, 37° C., 18 hours
Description: as §1, §2, §3, §4
To each well of the first row was pipetted 2.0 μL of the 6.4 mg/mL stock test compound stock solution to give 1:100 dilutions and a final concentration of 64 μg/mL and mixed.
as §5, §6, §7

EC(KB1 CTX-M-15) = type: cell-based, Escherichia coli; conditions: Escherichia coli, CAMH broth, 20 μM Apo-Transferrin, 37° C., 18 hours, read-out: Minimum Inhibitory Concentrations, EC(KB1 CTX-M-15)
Description: as §1, §2, §3, §4, §5, §6, §7

EC(ATCC NDM-1) = type: cell-based, Escherichia coli; conditions: Escherichia coli, CAMH broth, 20 μM Apo-Transferrin, 37° C., 18 hours, read-out: Minimum Inhibitory Concentrations, EC(ATCC NDM-1)
Description: as §1, §2, §3, §4, §5, §6, §7

EC (RR -1) = type: cell-based, Escherichia coli; conditions: CAMH broth, 20 μM Apo-Transferrin, 37° C., 18 hours
Description: as §1, §2, §3, §4, §5, §6, §7

EC (URMC-3) = type: cell-based, Escherichia coli; conditions: Escherichia coli, CAMH broth, 20 μM Apo-Transferrin, 37° C., 18 hours, read-out: Minimum Inhibitory Concentrations, EC (URMC-3)
Description: as §1, §2, §3, §4, §5, §6, §7

EC (URMC-2) = type: cell-based, Escherichia coli; conditions: Escherichia coli, CAMH broth, 20 μM Apo-Transferrin, 37° C., 18 hours, read-out: Minimum Inhibitory Concentrations, EC (URMC-2)
Description: as §1, §2, §3, §4, §5, §6, §7

EC (RR -2) = type: cell-based, Escherichia coli; conditions: CAMH broth, 20 μM Apo-Transferrin, 37° C., 18 hours
Description: as §1, §2, §3, §4, §5, §6, §7

EC(KB2 CTX-M-15) = type: cell-based, Escherichia coli; conditions: Escherichia coli, CAMH broth, 20 μM Apo-Transferrin, 37° C., 18 hours, read-out: Minimum Inhibitory Concentrations, EC(KB2 CTX-M-15)
Description: as §1, §2, §3, §4, §5, §6, §7

EC(JMI OXA-48) = type: cell-based, Escherichia coli; conditions: Escherichia coli, CAMH broth, 20 μM Apo-Transferrin, 37° C., 18 hours, read-out: Minimum Inhibitory Concentrations, EC(JMI OXA-48)
Description: as §1, §2, §3, §4, §5, §6, §7

EC (URMC-1) = type: cell-based, Escherichia coli; conditions: Escherichia coli, CAMH broth, 20 μM Apo-Transferrin, 37° C., 18 hours, read-out: Minimum Inhibitory Concentrations, EC (URMC-1)
Description: as §1, §2, §3, §4, §5, §6, §7

[1] = test system: Pseudomonas aeruginosa PA-RR-(980151052); type: cell-based; conditions: Pseudomonas aeruginosa; PA-RR-(980151052); CAMH broth, 20 μM Apo-Transferrin, 37° C., 18 hours; read-out: Minimum Inhibitory Concentrations, PA-RR-(980151052)
Summary of the method: (§8)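 Values come from a visual broth microdilution read: the first transparent well at the lowest drug level defines MIC. Inocula were standardized to 0.5 McFarland units, and the medium was CAMH with 20 μM apo-transferrin. Plates incubated overnight, 18 h, at 37 °C.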

[2] = test system: Pseudomonas aeruginosa PA (RR-2); type: cell-based; conditions: Pseudomonas aeruginosa; PA (RR-2); CAMH broth, 20 μM Apo-Transferrin, 37° C., 18 hours; read-out: Minimum Inhibitory Concentrations, PA (RR-2)
Summary of the method: as §8

[3] = test system: Pseudomonas aeruginosa PA (URMC-2); type: cell-based; conditions: Pseudomonas aeruginosa; PA (URMC-2); CAMH broth, 20 μM Apo-Transferrin, 37° C., 18 hours; read-out: Minimum Inhibitory Concentrations, PA (URMC-2)
Summary of the method: as §8

[4] = test system: Pseudomonas aeruginosa PA-RR-(purple Fre D); type: cell-based; conditions: Pseudomonas aeruginosa, CAMH broth, 20 μM Apo-Transferrin, 37° C., 18 hours, read-out: Minimum Inhibitory Concentrations, PA-RR-(purple Fre D)
Summary of the method: as §8

[5] = test system: Pseudomonas aeruginosa PA-RR-(G7305586); type: cell-based; conditions: Pseudomonas aeruginosa; PA-RR-(G7305586); CAMH broth, 20 μM Apo-Transferrin, 37° C., 18 hours; read-out: Minimum Inhibitory Concentrations, PA-RR-(G7305586)
Summary of the method: as §8

[6] = test system: Pseudomonas aeruginosa PA-RR-(98023895); type: cell-based; conditions: Pseudomonas aeruginosa; PA-RR-(98023895); CAMH broth, 20 μM Apo-Transferrin, 37° C., 18 hours; read-out: Minimum Inhibitory Concentrations, PA-RR-(98023895)
Summary of the method: as §8

ENC (ATCC NDM-1) = type: cell-based, Enterobacter cloacae; conditions: CAMH broth, 20 μM Apo-Transferrin, 37° C., 18 hours
Description: as §1, §2, §3, §4, §5, §6, §7

A. baumannii = type: cell-based, Acinetobacter baumannii; conditions: for MIC: Acinetobacter baumannii, A. baumannii, CAMH broth, 20 μM Apo-Transferrin, 37° C., 18 hours, read-out: Minimum Inhibitory Concentrations, A. baumannii
Description: as §1, §2, §3, §4, §5, §6, §7

[7] = test system: A. baumannii (JMI OXA-58); type: cell-based, Acinetobacter baumannii; conditions: Acinetobacter baumannii, class D carbapenemase producer, CAMH broth, 20 μM Apo-Transferrin, 37° C., 18 hours, read-out: Minimum Inhibitory Concentrations, A. baumannii (JMI OXA-58)
Description: as §1, §2, §3, §4, §5, §6, §7

SMILES	Minimum Inhibitory Concentrations, KP (URMC-1) (KP (URMC-1))	Minimum Inhibitory Concentrations, KP (URMC-3) (KP (URMC-3))	Mimimum Inhibitory Concentrations, KP (RR -1) (KP (RR -1))	Minimum Inhibitory Concentrations, KP (GJ 5659 TEM-26) (KP (GJ 5659 TEM-26))	Minimum Inhibitory Concentrations, KP (URMC-2) (KP (URMC-2))	Minimum Inhibitory Concentrations, KP (ATCC KPC-3) (KP (ATCC KPC-3))	Mimimum Inhibitory Concentrations, CF (RR -1) (CF (RR -1))	Mimimum Inhibitory Concentrations, PM (RR -1) (PM (RR -1))	Mimimum Inhibitory Concentrations, EA (URMC -3) (EA (URMC -3))	MIC (EC(KB1 CTX-M-15))	MIC (EC(ATCC NDM-1))	Mimimum Inhibitory Concentrations, EC (RR -1) (EC (RR -1))	MIC (EC (URMC-3))	MIC (EC (URMC-2))	Mimimum Inhibitory Concentrations, EC (RR -2) (EC (RR -2))	MIC (EC(KB2 CTX-M-15))	MIC (EC(JMI OXA-48))	MIC (EC (URMC-1))	MIC [1]	MIC [2]	also measured
CC(C)(O/N=C(\C(=O)N[C@@H]1C(=O)N2C(C(=O)O)=C(C=Cc3ccc(C[N+]4(C)CCc5c(Cl)c(O)c(O)c(Cl)c5C4)cc3)CS[C@H]12)c1csc(N)n1)C(=O)O (mixture of isomers) [Compound 429, 2-(4-((E/Z)-2-((6R,7R)-7-((Z)-2-(2-aminothiazol-4-yl)-2-(((2-carboxypropan-2-yl)oxy)imino)acetamido)-2-carboxy-8-oxo-5-thia-1-azabicyclo[4.2.0]oct-2-en-3-yl)vinyl)benzyl)-5,8 dichloro-6,7-dihydroxy-2-methyl-1,2,3,4-tetrahydroisoquinolin-2-ium]	≤0.06 microgram/mL	≤0.06 microgram/mL	0.25 microgram/mL	0.5 microgram/mL	≤0.06 microgram/mL	>64 microgram/mL	≤0.06 microgram/mL	≤0.06 microgram/mL	2 microgram/mL	8 µg/mL	> 64 µg/mL	≤0.06 microgram/mL	0.5 µg/mL	0.13 µg/mL	≤0.06 microgram/mL	8 µg/mL	2 µg/mL	0.5 µg/mL	0.5 µg/mL	≤ 0.06 µg/mL	MIC [3]: 0.5 µg/mL; MIC [4]: 2 µg/mL; MIC [5]: 1 µg/mL; MIC [6]: 4 µg/mL; Mimimum Inhibitory Concentrations, ENC (ATCC NDM-1) (ENC (ATCC NDM-1)): >64 microgram/mL; MIC (A. baumannii): 2 µg/mL; MIC [7]: > 64 µg/mL
CC(C)(O/N=C(\C(=O)N[C@@H]1C(=O)N2C(C(=O)O)=C(C=Cc3ccc(C[N+]4(C)Cc5c(Cl)c(O)c(O)c(Cl)c5C4)cc3)CS[C@H]12)c1csc(N)n1)C(=O)O (mixture of isomers) [Compound 431, 2-(4-((E/Z)-2-((6R,7R)-7-((Z)-2-(2-aminothiazol-4-yl)-2-(((2-carboxypropan-2-yl)oxy)imino)acetamido)-2-carboxy-8-oxo-5-thia-1-azabicyclo[4.2.0]oct-2-en-3-yl)vinyl)benzyl)-4,7-dichloro-5,6-dihydroxy-2-methylisoindolin-2-ium]	0.25 microgram/mL	≤0.06 microgram/mL	0.13 microgram/mL	0.5 microgram/mL	0.13 microgram/mL	>64 microgram/mL	1 microgram/mL	≤0.06 microgram/mL	1 microgram/mL	2 µg/mL	> 64 µg/mL	≤0.06 microgram/mL	0.25 µg/mL	≤ 0.06 µg/mL	≤0.06 microgram/mL	2 µg/mL	0.5 µg/mL	0.25 µg/mL	0.25 µg/mL	≤ 0.06 µg/mL	MIC [3]: ≤ 0.06 µg/mL; MIC [4]: 0.5 µg/mL; MIC [5]: 0.5 µg/mL; MIC [6]: 4 µg/mL; Mimimum Inhibitory Concentrations, ENC (ATCC NDM-1) (ENC (ATCC NDM-1)): >64 microgram/mL; MIC (A. baumannii): 1 µg/mL; MICs for an Acinetobacter baumannii strain, in words (A. baumannii; review of Table 2): low microgram/mL MICs; MIC [7]: > 64 µg/mL
